Experimental data: patent US20210113482A1, “Poly (Alkyl Cyanoacrylate) Nanoparticles for Use in Treatment of Cancer” (Sintef TTO AS, priority 2018, published 2021)
Where two headings read alike, the source gives them in different places.

How the values were obtained:
[1] = tested on: MAS98.12 patient derived xenograft (PDX) breast tumor, basal-like; assay: Treatment efficacy in mice bearing MAS98.12 patient derived xenograft; format: in vivo
Procedure: (§1) Treatment efficacy evaluation in nude mice.
(§2) The ortothopically growing basal-like xenograft model MAS98.12 has been established in house and was used as previously described in Lindholm et al (2012). When using the MDA-MB-231 cell line, 1.5 million cells were injected into the mammary fat pad and growing tumors were used for sequential implantation. As for the MAS98.12 model, 1-2 mm^3 pieces of healthy tumor tissue were implanted bilaterally into the mammary fat pad of female athymic mice. After the tumors reached approximately 5 mm in diameter, the mice were randomly assigned to the different treatment groups (the average volume of each group was 49-57 mm^3).
Statistical analyses. To calculate the significance in the efficacy studies, the area under the curve was calculated for each tumor and the mean values of the groups were compared using the Welch unequal variance. To determine whether there is a significant difference between the frequencies of the tumor regression in the different treatment groups, we used the Fischer's exact test. If not stated otherwise, an unpaired two-sided Student t-test without Welch correction was used. The statistical analyses were performed using either GraphPad Prism (version 7.00 for Windows, GraphPad Software, La Jolla, Calif., US) or Microsoft Excel.

[2] = Biodistribution: CBZ in tumor and organs by LC-MS/MS in MAS98.12 bearing mice; format: in vivo; details: 15 mg/kg i.v.
Procedure: (§3) CBZ quantification by LC-MS/MS. CBZ, as the pure chemical or part of NPs, was quantified by LC-MS/MS, using an Agilent 1290 HPLC system coupled to an Agilent 6490 triple quadrupole mass spectrometer. The HPLC column was an Ascentis Express C8, 75×2.1 mm, 2.7 μm particles size with a 5×2.1 mm guard column of the same material (Sigma), run at 40° C. Eluent A was 25 mM formic acid in water and eluent B was 100% methanol, and flow rate was 0.5 ml/min. The mobile phase gradient was isocratic at 55% B for 1.5 min, then from 55% to 80% B over 1 min, followed by 1 min washout time and subsequently column re-equilibration. Injection volume was 5.00 μl. MS detection was in positive ESI mode (Agilent Jetstream) quantified in multiple reaction monitoring (MRM) mode using the transition m/z 858.3→577.2. The parent ion was chosen to be the Na adduct as this gave the best sensitivity. Similarly, the hexadeuterated internal standard was detected on the 864.4→583.2 transition. Both analytes were run at 380 V fragmentor and 20 V collision energy.
Processing of tissue samples before LC-MS/MS analyses. In order to process the tissue samples such that their CBZ content could be quantified, we developed a protocol for enzymatic digestion of tissue followed by extraction and quantification of CBZ using the LC-MS/MS method described above. The enzyme buffer consisted of Dulbecco's Modified Eagle Medium (DMEM, Thermo Fisher Scientific, USA, 41965039) with 1% (v/v) penicillin-streptomycin stock solution (Sigma-Aldrich, P0781) to a final concentration of 100 U/ml penicillin and 100 μg/ml streptomycin, 0.125 mg/ml papain (Merck, F275644), 2.5 mg/ml trypsin (Sigma-Aldrich, T7409), 0.8 mg/ml collagenase (Sigma-Aldrich, C7926), 0.69 mg/ml hyaluronidase (Sigma-Aldrich, H3506) and 1% (v/v) Triton X-100 (Sigma-Aldrich, T-8787). To determine the biodistribution of CBZ, frozen organs (liver, spleen, lymph nodes, kidneys, tumors) were thawed and freshly prepared enzyme buffer was added at 1 ml per 50 mg tissue; the entire organs were digested. The samples were heated to 37° C. for 72 h with vortexing once a day, until the tissue was completely dissolved. The tissue digests, as well as the plasma samples from the animals, were diluted 10× in acetone before centrifugation; this has the dual effect of both precipitating proteins and other macromolecules, thus cleaning up the sample, and making sure all CBZ is solubilized. Internal standard (hexadeuterated CBZ) dissolved in acetone was added to a final concentration of 10 ng/ml during the acetone dilution to correct for possible matrix effects.
Biodistribution and pharmacokinetics in blood. Blood and tissue samples were obtained following a single i.v. injection of PEBCA-CBZ and non-encapsulated CBZ (15 mg/kg) into the tail vein of mice bearing the MAS98.12 tumor (n=3). Empty particles (PEBCA) and saline were used as negative controls. The blood samples were taken either per tail vein puncture (approximately after 2 min and thereafter at 1, 4 and 24 h after injection) or by terminal cardiac puncture (96 h after injection) in Vacutainer tubes containing EDTA (BD Biosciences, San Jose, Calif., USA) and kept on ice. The 0-24 h samples were collected consecutively from the same animals (n=3) while samples after 96 h were obtained from separate mice (n=3). The blood was centrifuged for 15 min at 4° C. and 3400×g, and the supernatant plasma was collected and stored at −80° C. until LC-MS/MS analysis. […]

[3] = tested on: iNOS (M1, anti-tumorigenic pro-inflammatory macrophages); assay: Macrophage infiltration in treated MAS98.12 tumors, immunohistochemistry with anti-iNOS; format: in vivo, mice; details: 96 h after single injection
Procedure: (§4) Immunohistochemistry. Tumors from MAS98.12 bearing mice were collected 96 h after a single injection of the same substances as were injected in the MAS98.12 efficacy study. The tumors were preserved in 4% (v/v) formalin and then paraffinized and sliced to prepare consecutive slides (3 μm thick). The deparaffinization agent Neo-clear and mounting agent Neo-mount were obtained from VWR (Radnor, Pa., USA). Heat induced epitope retrieval was performed by placing deparaffinized slides with 10 mM sodium citrate buffer (pH 6.0) in water bath for 20 min at 100° C. Endogenous peroxidase activity was blocked by incubating slides with 3% (v/v) hydrogen peroxide in Tris-buffered saline (TBS; 50 mM Tris-Cl, 150 mM NaCl, pH 7.6). Sections were washed and blocking of non-specific binding was performed with 3% (w/v) bovine serum albumin (Roche diagnostics GmbH, Mannheim, Germany) in TBS for 30 min. Sections were then incubated for 60 min with the primary antibodies. […]
(§5) Stained tissue sections were scanned (NanoZoomer HT, Hamamatsu Photonics, Hamamatsu, Japan) using a 40× objective. The extent of CD68, iNOS and CD206 was automatically scored using the ImmunoPath software (Room4 Ltd., Crowborough, UK). […] The annotated representative areas were analyzed further by computerized image analysis. […]

[4] = tested on: CD206 (M2, pro-tumorigenic anti-inflammatory macrophages); assay: Macrophage infiltration in treated MAS98.12 tumors, immunohistochemistry with anti-CD206; format: in vivo, mice; details: 96 h after single injection
Procedure: as §4, §5

[5] = tested on: CD68 (whole macrophage population); assay: Macrophage infiltration in treated MAS98.12 tumors, immunohistochemistry with anti-CD68; format: in vivo, mice; details: 96 h after single injection; compared to free CBZ or saline; not statistically significant
Procedure: as §4, §5

[6] = tested on: MDA-MB-231 tumors; assay: Treatment efficacy in mice bearing MDA-MB-231 tumors; format: in vivo; details: 2×15 mg CBZ/kg i.v.
Procedure: as §1, §2

[7] = tested on: MDA-MB-231, MDA-MB-468 and MCF-7 cells; assay: In vitro cellular toxicity: MTT cell viability (72 h) and [3H]thymidine incorporation (24 h) in three breast cancer cell lines; format: cell-based, human; details: MTT assay, 72 h incubation, all cell lines
Procedure: Cell lines. Three breast cancer cell lines were used in this study. The MDA-MB-231 (triple negative; Claudin low), was cultured in RPMI 1640; the MDA-MB-468 (triple negative; basal) and the MCF-7 (luminal A) cell lines were cultured in DMEM. All medium was fortified with 10% (w/v) fetal calf serum albumin (Sigma) and 100 units/ml penicillin/streptomycin (PenStrep®, Sigma). All cell lines were obtained from ATCC and were routinely tested for mycoplasma. Cells growing in 24- or 96-well plates were incubated with serial dilutions of PEBCA-CBZ, CBZ (non-encapsulated CBZ) dissolved in Tween-80 (Fluka)), and PEBCA without CBZ for 24, 48 or 72 h at 37° C. in an atmosphere of 5% CO2. The toxicity was assessed either by the commonly used MTT (3-(4,5-dimethylthiazol-2-yl)-2,5-diphenyltetrazolium bromide) cell viability assay, by measuring cell proliferation based on [^3H]thymidine incorporation, by measuring protein synthesis by incorporation of [^3H]leucine and by measuring ATP levels using CellTiter Glo®.
MTT cell viability assay. […] The absorbance was read in a plate reader (Biosys Ltd, Essex, UK) at 570 nm, and background from absorbance at 650 nm was subtracted.
Cell proliferation measured by [^3H]thymidine incorporation. […] The radioactivity was counted for 1 min in a scintillation counter (Tri-Carb 2100TR, Packard Bioscience, USA).

[8] = Pharmacokinetics in blood: CBZ in plasma by LC-MS/MS in MAS98.12 bearing mice; format: in vivo; details: female, athymic nude foxn1nu, mouse, iv, 15 mg/kg, 15 mg/kg i.v.
Procedure: as §3
Processing of tissue samples before LC-MS/MS analyses. In order to process the tissue samples such that their CBZ content could be quantified, we developed a protocol for enzymatic digestion of tissue followed by extraction and quantification of CBZ using the LC-MS/MS method described above. […]

Structure (SMILES): CO[C@H]1C(=O)[C@]2(C)[C@@H](OC)C[C@H]3OC[C@@]3(OC(C)=O)[C@H]2[C@H](OC(=O)c2ccccc2)[C@]2(O)C[C@H](OC(=O)[C@H](O)[C@@H](NC(=O)OC(C)(C)C)c3ccccc3)C(C)=C1C2(C)C [CBZ, cabazitaxel]
- Tumor growth ([1]; 2×15 mg CBZ/kg i.v. (particle dose 2×175 mg/kg), day 33 and 36): markedly inhibited tumor growth
- tumors in complete remission ([1]; 2×15 mg CBZ/kg i.v., non-palpable tumors at day 57 after implantation): 2 out of 9
- change of CBZ concentration in tissue from 24 to 96 h [2]: significantly lower in tumors after 96 h
- CBZ level in tumor relative to the PEBCA-CBZ group ([2]; 24 h): about ⅓
- tissue with the highest CBZ amount ([2]; 24 h): the tumor
- tissues in which CBZ could be detected (above LOQ) ([2]; 96 h): only in the tumor tissue
- CBZ concentration in tumors relative to that after PEBCA-CBZ ([2]; 96 h, difference not significant (p=0.18)): approximately 50%
- pro-inflammatory M1 macrophages (iNOS) in tumors [3]: no response in the macrophage populations
- anti-inflammatory M2 macrophages (CD206 positive cells) in tumors [4]: no response in the macrophage populations
- total tumor infiltrating macrophages (CD68) [5]: no response in the macrophage populations
- Tumor growth [6]: a delay in tumor growth was observed
- efficacy compared to MAS98.12 [6]: less effective
- fraction of the cells surviving even very high CBZ concentrations [7]: 10-20%
- half-life ([8]; from mean values of the two last time points (24 and 96 h), read-out: elimination half-life (converted)): ~60 h
- half-life ([8]; interpolation of the two first data points (up to 1 hr), read-out: distribution half-life): ~0.5 h
